In publication PMC9036676 (RSC Advances, 2021):
Positions of bridges follow the written chain, without caps; N, C: chain ends. Non-standard residues stand in square brackets, D forms with d. Residues, ends and D or L forms follow the SMILES beside them. Trp(1-CH2COOH) = N[C@@H](Cc1cn(CC(=O)O)c2ccccc12)C(=O)O; Oic = O=C(O)[C@@H]1C[C@@H]2CCCC[C@@H]2N1; Hyp = O=C(O)[C@@H]1C[C@@H](O)CN1; NMeNle = CCCC[C@H](NC)C(=O)O; Pip = O=C(O)[C@@H]1CCCCN1; NMeA = CN[C@@H](C)C(=O)O; Dab = NCC[C@H](N)C(=O)O; Dap = NC[C@H](N)C(=O)O

Assays:
[1] = tested on: PD-1/PD-L1 interaction; settings: read-out: IC50, inhibitory activity against the PD-1/PD-L1 interaction; cited from earlier work
[2] = target: PD-1/PD-L1 (Homo sapiens, UniProt Q9NZQ7); assay: PD-1/PD-L1 TR-FRET assay; assay type: binding; settings: IC50 on PD-1/PD-L1, TR-FRET assay
Sequence of PD-1/PD-L1 (Q9NZQ7 19-238 limits assumed): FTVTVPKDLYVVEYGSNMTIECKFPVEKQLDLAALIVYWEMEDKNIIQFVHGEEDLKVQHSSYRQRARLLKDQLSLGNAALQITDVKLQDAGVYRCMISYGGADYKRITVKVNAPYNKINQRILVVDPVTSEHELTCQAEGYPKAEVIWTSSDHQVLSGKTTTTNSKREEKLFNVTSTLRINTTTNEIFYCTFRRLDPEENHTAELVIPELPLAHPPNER

Compound | IC50 [1] [nM] | IC50 [2] [nM]
CCCC[C@H]1C(=O)N(C)[C@@H](CCCC)C(=O)N[C@@H](CCCNC(=N)N)C(=O)N[C@H](C(=O)NCC(N)=O)CSCC(=O)N[C@@H](Cc2ccccc2)C(=O)N(C)[C@@H](C)C(=O)N[C@@H](CC(N)=O)C(=O)N2CCC[C@H]2C(=O)N[C@@H](Cc2c[nH]cn2)C(=O)N[C@@H](CC(C)C)C(=O)N[C@@H](CO)C(=O)N[C@@H](Cc2c[nH]c3ccccc23)C(=O)N[C@@H](CO)C(=O)N[C@@H](Cc2c[nH]c3ccccc23)C(=O)N1C [Compound 1] ({CH2CO}-F[NMeA]NPHLSWSW[NMeNle][NMeNle]RCG-NH2; thioether N-14) | 9 | –
CCCC[C@H]1C(=O)N(C)[C@@H](CCCC)C(=O)N[C@@H](CC(C)C)C(=O)N[C@H](C(=O)NCC(N)=O)CSCC(=O)N[C@@H](Cc2ccccc2)C(=O)N(C)[C@@H](C)C(=O)N[C@@H](CC(N)=O)C(=O)N2CCC[C@H]2C(=O)N[C@@H](Cc2c[nH]cn2)C(=O)N[C@@H](CC(C)C)C(=O)N2C[C@H](O)C[C@H]2C(=O)N[C@@H](Cc2c[nH]c3ccccc23)C(=O)N[C@@H](CO)C(=O)N[C@@H](Cc2c[nH]c3ccccc23)C(=O)N1C [Compound 2] ({CH2CO}-F[NMeA]NPHL[Hyp]WSW[NMeNle][NMeNle]LCG-NH2; thioether N-14) | – | 40.1
CCCC[C@H]1C(=O)N(C)[C@@H](CCCC)C(=O)N[C@@H](CC(C)C)C(=O)N[C@H](C(=O)NCC(N)=O)CSCC(=O)N[C@@H](Cc2ccc(O)cc2)C(=O)N2CCCC[C@H]2C(=O)N[C@@H](CC(N)=O)C(=O)N2[C@@H](C[C@@H]3CCCC[C@@H]32)C(=O)N[C@@H](CN)C(=O)N[C@@H](CC(C)C)C(=O)N2C[C@H](O)C[C@H]2C(=O)N[C@@H](Cc2c[nH]c3ccccc23)C(=O)N[C@@H](CCN)C(=O)N[C@@H](Cc2cn(CC(=O)O)c3ccccc23)C(=O)N1C [Compound 5] ({CH2CO}-Y[Pip]N[Oic][Dap]L[Hyp]W[Dab][Trp(1-CH2COOH)][NMeNle][NMeNle]LCG-NH2; thioether N-14) | – | 14.6
